Experiment [1] concerns MLKL phosphorylation in HT29-L23 human colorectal adenocarcinoma cells. Nature of the experiment: MLKL Phosphorylation High-Content Assay. It is filed as cell-based. Conditions: Homo sapiens. In outline:
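Cells incubated six hours at 37° C., then phospho-MLKL (S358) immunostained overnight at 4° C. and imaged by high-content microscopy. Phosphorylation quantified as mean circ-ring average intensity ratio; IC50 and Ymax from 4-parameter logistic fits.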

The target in experiment [2] is T1, His-GST-TVMV-hRIPK1(1-324) (Homo sapiens, UniProt Q13546).
T1 construct: The coding region of human RIPK1(1-324) flanked by NdeI site at 5′ end; made in house; host or cells: Spodoptera frugiperda (Sf9) insect cells, baculovirus
T1 sequence (Q13546 1-324): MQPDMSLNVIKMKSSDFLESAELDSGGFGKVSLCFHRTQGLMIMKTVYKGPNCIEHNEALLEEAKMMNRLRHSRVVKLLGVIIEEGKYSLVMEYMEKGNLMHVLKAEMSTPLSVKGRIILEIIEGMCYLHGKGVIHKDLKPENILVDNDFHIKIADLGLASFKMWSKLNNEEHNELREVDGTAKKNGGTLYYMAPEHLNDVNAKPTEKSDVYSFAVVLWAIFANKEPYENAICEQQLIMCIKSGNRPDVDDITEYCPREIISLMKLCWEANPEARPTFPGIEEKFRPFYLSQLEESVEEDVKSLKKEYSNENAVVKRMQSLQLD
Nature of the experiment: RIPK1 HTRF Binding Assay.

The mark [3] stands for this setting: x marks IC50 class >200 nM, read-out: pMLKL cell activity >200 nM.
Where [4] appears, read: x marks IC50 class 20-200 nM, read-out: RIPK1 HTRF binding 20-200 nM.
Where [5] appears, read: x marks IC50 class 20-200 nM, read-out: pMLKL cell activity 20-200 nM.

Among the data in patent publication US10913738B2 (BRISTOL-MYERS SQUIBB COMPANY, priority 2017, dated 2021) are IC50 values, retold here.

pIC50: −log10 of the molar value. Read-outs that look alike come from different tables or passages of the source.

Take `Cc1ncc(-c2ccn3nc(N)nc3c2)cc1C(=O)NCc1cc(F)ccc1OCC(F)(F)F` [Example 309, 5-(2-amino-[1,2,4]triazolo[1,5-a]pyridin-7-yl)-N-(5-fluoro-2-(2,2,2-trifluoroethoxy)benzyl)-2-methylnicotinamide]: the pIC50 is less than 6.70 in experiment [1] (setting [3]) and greater than 7.70 in experiment [2] (x marks IC50 class <20 nM, read-out: RIPK1 HTRF binding <20 nM).

Regarding `[2H]C([2H])([2H])[C@H](NC(=O)c1cc(-c2ccn3nc(N)nc3c2)cnc1C)c1cccc(OC(F)(F)F)c1` [Example 310, (S)-5-(2-amino-[1,2,4]triazolo[1,5-a]pyridin-7-yl)-2-methyl-N-(1-(3-(trifluoromethoxy)phenyl)ethyl-2,2,2-H3)nicotinamide], the pIC50 is less than 6.70 in experiment [1] (setting [3]) and 6.70 to 7.70 in experiment [2] (setting [4]).

Consider `[2H]C([2H])([2H])[C@@H](NC(=O)c1cc(-c2ccn3nc(N)nc3c2)cnc1C)c1cccc(OC(F)(F)F)c1` [Example 311, (R)-5-(2-amino-[1,2,4]triazolo[1,5-a]pyridin-7-yl)-2-methyl-N-(1-(3-(trifluoromethoxy)phenyl)ethyl-2,2,2-H3)nicotinamide], for which the pIC50 in experiment [1] (setting [3]) is less than 6.70; in experiment [2] (setting [4]), 6.70 to 7.70.

Consider `Cc1ncc(-c2ccn3nc(N)nc3c2)cc1C(=O)NCc1ccccc1OCC(F)(F)F` [Example 312, 5-(2-amino-[1,2,4]triazolo[1,5-a]pyridin-7-yl)-2-methyl-N-(2-(2,2,2-trifluoroethoxy)benzyl)nicotinamide], for which the figures for the pIC50 in experiment [1] (setting [3]) and in experiment [2] (setting [4]) were less than 6.70 and 6.70 to 7.70, respectively.

Regarding `Cc1ncc(-c2ccn3nc(N)nc3c2)cc1C(=O)NCc1cccc(OCC(F)(F)F)c1` [Example 313, 5-(2-amino-[1,2,4]triazolo[1,5-a]pyridin-7-yl)-2-methyl-N-(3-(2,2,2-trifluoroethoxy)benzyl)nicotinamide], the pIC50 in experiment [1] (setting [3]) was less than 6.70; in experiment [2] (setting [4]), 6.70 to 7.70.

`Cc1ncc(-c2ccn3nc(N)nc3c2)cc1C(=O)NCc1cc(F)cc(F)c1OC1CCCOC1` (centres unmarked) [Example 314, 5-(2-amino-[1,2,4]triazolo[1,5-a]pyridin-7-yl)-N-(3,5-difluoro-2-((tetrahydro-2H-pyran-3-yl)oxy)benzyl)-2-methylnicotinamide]: the pIC50 in experiment [1] (setting [5]) and in experiment [2] (setting [4]) was 6.70 to 7.70 each time.

In the case of `Cc1ncc(-c2ccn3nc(N)nc3c2)cc1C(=O)NCc1cc(F)cc(F)c1OC1CC(C)OC(C)C1` (centres unmarked) [Example 315, 5-(2-amino-[1,2,4]triazolo[1,5-a]pyridin-7-yl)-N-(2-((2,6-dimethyltetrahydro-2H-pyran-4-yl)oxy)-3,5-difluorobenzyl)-2-methylnicotinamide], the pIC50 in experiment [1] (setting [5]) and in experiment [2] (setting [4]) was 6.70 to 7.70 in each case.

As for `Cc1ncc(-c2ccn3nc(N)nc3c2)cc1C(=O)NCc1cc(F)cc(F)c1OC1CCOC(C)C1` (centres unmarked) [Example 316, 5-(2-amino-[1,2,4]triazolo[1,5-a]pyridin-7-yl)-N-(3,5-difluoro-2-((2-methyltetrahydro-2H-pyran-4-yl)oxy)benzyl)-2-methylnicotinamide], the pIC50 is less than 6.70 in experiment [1] (setting [3]) and 6.70 to 7.70 in experiment [2] (setting [4]).

Regarding `Cc1ncc(-c2ccn3nc(N)nc3c2)cc1C(=O)NCc1cc(F)cc(F)c1OC1CCOC1` (centres unmarked) [Example 317, 5-(2-amino-[1,2,4]triazolo[1,5-a]pyridin-7-yl)-N-(3,5-difluoro-2-((tetrahydrofuran-3-yl)oxy)benzyl)-2-methylnicotinamide], the pIC50 was less than 6.70 in experiment [1] (setting [3]) and 6.70 to 7.70 in experiment [2] (setting [4]).

As for `Cc1ncc(-c2ccn3nc(N)nc3c2)cc1C(=O)N(C)[C@H](C)c1cc(OC(F)(F)F)ccc1F` [Example 318, (R)-5-(2-amino-[1,2,4]triazolo[1,5-a]pyridin-7-yl)-N-(1-(2-fluoro-5-(trifluoromethoxy)phenyl)ethyl)-N,2-dimethylnicotinamide], the pIC50 in experiment [1] (setting [5]) is 6.70 to 7.70; in experiment [2] (x marks IC50 class >200 nM, read-out: RIPK1 HTRF binding >200 nM) it was less than 6.70.
